Measurements as given in patent US12371464B2, “Polypeptides and uses thereof” (MEDIMMUNE LIMITED, priority 2020, dated 2025).
Numbered stars: 1 amine (or outer) side, 2 acyl side, 3 side chain; on linkers, the order of the positions; unused ones are H or OH. Bridge positions count the residues as written; N and C are the ends. Square brackets hold non-standard residues; d marks the D form. Side chains are listed from the residue outwards. Peptide text beside a SMILES is read from it. * marks the point of attachment. C20 diacid = O=C(O)CCCCCCCCCCCCCCCCCCC(=O)*; C18 diacid = O=C(O)CCCCCCCCCCCCCCCCC(=O)*; γGlu = O=C(O)[C@H](CCC(=O)[*:2])N[*:1]; Dab = NCC[C@H](N)C(=O)O; AEEA = NCCOCCOCC(=O)O; Aib = CC(C)(N)C(=O)O

Assay: Thioflavin T fibrillation assay
Type: physicochemical
Conditions: for Time taken to detect increase in fluorescence intensity: 1 mg/mL in 25 mM sodium acetate buffer pH 4.0, 37° C., 6 days, orbital shaking, >144 h = no increase; for fibril-forming tendency on conjugating pramlintide to a lipid: as seen in Table 7
In short: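 Peptides at 1 mg/mL in 25 mM sodium acetate pH 4.0 were mixed with ThT (0.25 mM stock) and held 6 days at 37 °C with intermittent orbital shaking at 500–750 rpm. Fluorescence (ex 444/em 480 nm) was read every 30 min, with buffer baseline correction and 5 replicates. Value: mean time to a detectable fluorescence increase.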

Row | Compound | Time taken to detect increase in fluorescence intensity [h] | fibril-forming tendency on conjugating pramlintide to a lipid
1 | CC[C@H](C)[C@H](NC(=O)[C@@H]1CCCN1C(=O)CNC(=O)[C@H](Cc1ccccc1)NC(=O)[C@H](CC(N)=O)NC(=O)[C@H](CC(N)=O)NC(=O)[C@H](CO)NC(=O)[C@H](CO)NC(=O)[C@H](Cc1c[nH]cn1)NC(=O)[C@@H](NC(=O)[C@H](CC(C)C)NC(=O)[C@H](Cc1ccccc1)NC(=O)[C@H](CC(N)=O)NC(=O)[C@H](C)NC(=O)[C@H](CC(C)C)NC(=O)[C@H](CCCNC(=N)N)NC(=O)[C@H](CCC(N)=O)NC(=O)[C@@H](NC(=O)[C@H](C)NC(=O)[C@@H]1CSSC[C@H](NC(=O)[C@@H](N)CCCCNC(=O)CC[C@H](NC(=O)CCCCCCCCCCCCCCCCC(=O)O)C(=O)O)C(=O)N[C@@H](CC(N)=O)C(=O)N[C@@H]([C@@H](C)O)C(=O)N[C@@H](C)C(=O)N[C@@H]([C@@H](C)O)C(=O)N1)[C@@H](C)O)C(C)C)C(=O)N[C@@H](CC(C)C)C(=O)N1CCC[C@@H]1C(=O)N1CCC[C@H]1C(=O)N[C@H](C(=O)N[C@@H](CC(N)=O)C(=O)N[C@H](C(=O)NCC(=O)N[C@@H](CO)C(=O)N[C@@H](CC(N)=O)C(=O)N[C@H](C(=O)N[C@@H](Cc1ccc(O)cc1)C(N)=O)[C@@H](C)O)C(C)C)[C@@H](C)O [Peptide 104] (H-K([γGlu-C18 diacid])CNTATCATQRLANFLVHSSNNFGPIL[dP]PTNVGSNTY-NH2; disulfide 2-7; N-terminus assumed) | <5 | 
2 | CC[C@H](C)[C@H](NC(=O)[C@@H]1CCCN1C(=O)CNC(=O)[C@H](Cc1ccccc1)NC(=O)[C@H](CC(N)=O)NC(=O)[C@H](CC(N)=O)NC(=O)[C@H](CO)NC(=O)[C@H](CO)NC(=O)[C@H](Cc1c[nH]cn1)NC(=O)[C@@H](NC(=O)[C@H](CC(C)C)NC(=O)[C@H](Cc1ccccc1)NC(=O)[C@H](CC(N)=O)NC(=O)[C@H](C)NC(=O)[C@H](CC(C)C)NC(=O)[C@H](CCCNC(=N)N)NC(=O)[C@H](CCC(N)=O)NC(=O)[C@@H](NC(=O)[C@H](C)NC(=O)[C@@H]1CSSC[C@H](NC(=O)[C@H](CCCCN)NC(=O)CC[C@H](NC(=O)CCCCCCCCCCCCCCCCCCC(=O)O)C(=O)O)C(=O)N[C@@H](CC(N)=O)C(=O)N[C@@H]([C@@H](C)O)C(=O)N[C@@H](C)C(=O)N[C@@H]([C@@H](C)O)C(=O)N1)[C@@H](C)O)C(C)C)C(=O)N[C@@H](CC(C)C)C(=O)N1CCC[C@H]1C(=O)N1CCC[C@H]1C(=O)N[C@H](C(=O)N[C@@H](CC(N)=O)C(=O)N[C@H](C(=O)NCC(=O)N[C@@H](CO)C(=O)N[C@@H](CC(N)=O)C(=O)N[C@H](C(=O)N[C@@H](Cc1ccc(O)cc1)C(N)=O)[C@@H](C)O)C(C)C)[C@@H](C)O [Peptide 112] ({C20 diacid-γGlu}-KCNTATCATQRLANFLVHSSNNFGPILPPTNVGSNTY-NH2; disulfide 2-7) | <5 | increases the fibril-forming tendency
3 | CC[C@H](C)[C@H](NC(=O)[C@@H]1CCCN1C(=O)CNC(=O)[C@H](Cc1ccccc1)NC(=O)[C@H](CC(N)=O)NC(=O)[C@H](CC(N)=O)NC(=O)[C@H](CO)NC(=O)[C@H](CO)NC(=O)[C@H](Cc1c[nH]cn1)NC(=O)[C@@H](NC(=O)[C@H](CC(C)C)NC(=O)[C@H](Cc1ccccc1)NC(=O)[C@H](CC(N)=O)NC(=O)[C@H](C)NC(=O)[C@H](CC(C)C)NC(=O)[C@H](CCCNC(=N)N)NC(=O)[C@H](CCC(N)=O)NC(=O)[C@@H](NC(=O)[C@H](C)NC(=O)[C@@H]1CSSC[C@H](NC(=O)[C@H](CCCCN)NC(=O)COCCOCCNC(=O)COCCOCCNC(=O)CC[C@H](NC(=O)CCCCCCCCCCCCCCCCCCC(=O)O)C(=O)O)C(=O)N[C@@H](CC(N)=O)C(=O)N[C@@H]([C@@H](C)O)C(=O)N[C@@H](C)C(=O)N[C@@H]([C@@H](C)O)C(=O)N1)[C@@H](C)O)C(C)C)C(=O)N[C@@H](CC(C)C)C(=O)N1CCC[C@H]1C(=O)N1CCC[C@H]1C(=O)N[C@H](C(=O)N[C@@H](CC(N)=O)C(=O)N[C@H](C(=O)NCC(=O)N[C@@H](CO)C(=O)N[C@@H](CC(N)=O)C(=O)N[C@H](C(=O)N[C@@H](Cc1ccc(O)cc1)C(N)=O)[C@@H](C)O)C(C)C)[C@@H](C)O [Peptide 113] ({C20 diacid-γGlu-AEEA-AEEA}-KCNTATCATQRLANFLVHSSNNFGPILPPTNVGSNTY-NH2; disulfide 2-7) | <5 | increases the fibril-forming tendency
4 | CC[C@H](C)[C@H](NC(=O)[C@@H]1CCCN1C(=O)CNC(=O)[C@H](Cc1ccccc1)NC(=O)[C@H](CC(N)=O)NC(=O)[C@H](CC(N)=O)NC(=O)[C@H](CO)NC(=O)[C@H](CO)NC(=O)[C@H](Cc1c[nH]cn1)NC(=O)C(C)(C)NC(=O)[C@H](CC(C)C)NC(=O)[C@H](Cc1ccccc1)NC(=O)[C@H](CCN)NC(=O)[C@H](C)NC(=O)[C@H](CC(C)C)NC(=O)[C@H](CCCNC(=N)N)NC(=O)[C@H](CCC(N)=O)NC(=O)[C@@H](NC(=O)[C@H](C)NC(=O)[C@@H]1CSSC[C@H](NC(=O)[C@H](CCCCN)NC(=O)[C@@H](N)CCCCNC(=O)CC[C@H](NC(=O)CCCCCCCCCCCCCCCCC(=O)O)C(=O)O)C(=O)N[C@@H](CC(N)=O)C(=O)N[C@@H]([C@@H](C)O)C(=O)N[C@@H](C)C(=O)N[C@@H]([C@@H](C)O)C(=O)N1)[C@@H](C)O)C(=O)N[C@@H](CC(C)C)C(=O)N1CCC[C@H]1C(=O)N1CCC[C@H]1C(=O)N[C@H](C(=O)N[C@@H](CCC(=O)O)C(=O)N[C@H](C(=O)NCC(=O)N[C@@H](CO)C(=O)N[C@@H](CC(N)=O)C(=O)N[C@H](C(=O)N[C@@H](Cc1ccc(O)cc1)C(N)=O)[C@@H](C)O)C(C)C)[C@@H](C)O [Peptide 156] (H-K([γGlu-C18 diacid])KCNTATCATQRLA[Dab]FL[Aib]HSSNNFGPILPPTEVGSNTY-NH2; disulfide 3-8; N-terminus assumed) | >144 | 
